In US20240190821A1, “SULFONAMIDE SUBSTITUTED N-(1H-INDOL-7-YL)BENZENESULFONAMIDES AND USES THEREOF” (Triana Biomedicines, Inc., priority 2021, published 2024) one finds IC50 and EC50 data, which are given here for 34 compounds.

The target of one assay is DCAF15 (Homo sapiens, UniProt Q66K64). Description: Binary interaction between compounds and DCAF15, HTRF competition assay. It counts as binding. The note with it: HTRF competition with Alexa Fluor 647 tracer, His-tagged DCAF15 complex; read-out: DCAF15 IC50. The method, then: DCAF15 interactions with test compounds were monitored using HTRF competition assays (Cisbio, Bedford, MA). […] These two solutions were mixed and incubated for 15 min at room temperature. 9.8 ul of the tracer solution and 10 ul of the DCAF15/mAb Anti-6His-Eu cryptate Gold mixture were added sequentially to each well in the assay plate. Reaction mixtures with no DCAF15 added were included as […] controls. […] Binding was estimated based on ratiometric analysis and titration curves were generated in GraphPad Prism (7.00, GraphPad, La Jolla, CA).
DCAF15, sequence (Q66K64 whole entry): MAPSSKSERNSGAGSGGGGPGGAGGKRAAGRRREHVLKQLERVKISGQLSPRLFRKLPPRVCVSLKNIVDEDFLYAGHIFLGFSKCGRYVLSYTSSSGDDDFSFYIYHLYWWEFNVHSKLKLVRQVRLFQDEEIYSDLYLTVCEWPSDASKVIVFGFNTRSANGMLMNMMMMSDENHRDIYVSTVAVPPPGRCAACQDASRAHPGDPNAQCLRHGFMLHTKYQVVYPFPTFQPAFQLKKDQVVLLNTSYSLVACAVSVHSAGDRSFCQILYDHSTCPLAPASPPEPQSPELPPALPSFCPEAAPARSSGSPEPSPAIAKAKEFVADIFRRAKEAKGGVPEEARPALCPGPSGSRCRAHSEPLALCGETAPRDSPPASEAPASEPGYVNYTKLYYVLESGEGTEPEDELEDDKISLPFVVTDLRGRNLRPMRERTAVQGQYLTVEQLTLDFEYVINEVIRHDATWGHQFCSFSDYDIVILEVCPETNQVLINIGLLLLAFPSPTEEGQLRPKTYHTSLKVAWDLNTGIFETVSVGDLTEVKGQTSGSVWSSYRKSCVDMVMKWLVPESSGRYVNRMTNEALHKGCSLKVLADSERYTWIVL
DCAF15, sequence (Q16531 whole entry partner): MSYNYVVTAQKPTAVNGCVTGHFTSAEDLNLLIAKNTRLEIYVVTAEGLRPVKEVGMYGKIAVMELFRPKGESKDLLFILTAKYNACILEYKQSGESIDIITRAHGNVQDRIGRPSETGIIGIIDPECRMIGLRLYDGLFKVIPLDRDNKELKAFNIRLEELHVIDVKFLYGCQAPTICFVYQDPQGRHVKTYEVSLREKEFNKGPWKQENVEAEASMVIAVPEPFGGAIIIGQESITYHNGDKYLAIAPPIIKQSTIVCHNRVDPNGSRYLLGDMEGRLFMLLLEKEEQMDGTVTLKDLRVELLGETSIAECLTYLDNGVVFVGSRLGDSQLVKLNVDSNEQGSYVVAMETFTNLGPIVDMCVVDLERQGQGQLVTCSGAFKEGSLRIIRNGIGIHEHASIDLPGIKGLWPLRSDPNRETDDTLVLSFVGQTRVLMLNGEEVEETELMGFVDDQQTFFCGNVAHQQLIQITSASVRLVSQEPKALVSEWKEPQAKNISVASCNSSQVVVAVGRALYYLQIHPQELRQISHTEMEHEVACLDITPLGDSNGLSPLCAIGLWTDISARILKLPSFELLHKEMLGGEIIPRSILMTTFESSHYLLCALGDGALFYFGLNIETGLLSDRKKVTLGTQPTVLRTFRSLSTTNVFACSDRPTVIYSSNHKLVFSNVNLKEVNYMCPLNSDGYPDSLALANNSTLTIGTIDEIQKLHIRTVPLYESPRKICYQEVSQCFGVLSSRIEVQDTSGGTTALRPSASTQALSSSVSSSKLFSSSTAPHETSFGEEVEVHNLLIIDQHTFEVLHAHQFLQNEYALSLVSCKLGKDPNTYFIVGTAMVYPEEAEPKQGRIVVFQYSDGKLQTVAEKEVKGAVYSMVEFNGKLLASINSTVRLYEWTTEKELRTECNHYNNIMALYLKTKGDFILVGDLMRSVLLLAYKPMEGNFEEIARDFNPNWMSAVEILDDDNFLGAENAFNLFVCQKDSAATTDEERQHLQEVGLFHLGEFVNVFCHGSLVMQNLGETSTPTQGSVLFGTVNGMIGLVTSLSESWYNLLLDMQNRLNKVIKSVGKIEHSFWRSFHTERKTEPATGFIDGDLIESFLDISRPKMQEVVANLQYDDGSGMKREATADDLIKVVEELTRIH
Take `N#Cc1cc(S(=O)(=O)Nc2ccc(Cl)c3c(Cl)c[nH]c23)ccc1S(=O)(=O)N1CCNCC1` [Compound 43, 3-cyano-N-(3,4-dichloro-1H-indol-7-yl)-4-(piperazin-1-ylsulfonyl)benzenesulfonamide]: the IC50 – broadly, the concentration at which inhibition is half-maximal – was less than 5000 nM.

For `O=S(=O)(Nc1ccc(Cl)c2c(Cl)c[nH]c12)c1ccc(S(=O)(=O)NC2CCOCC2)cc1` [Compound 28, N^1-(3,4-dichloro-1H-indol-7-yl)-N^4-(tetrahydro-2H-pyran-4-yl)benzene-1,4-disulfonamide], the IC50 is less than 100000 nM.

`O=S(=O)(Nc1ccc(C2CC2)c2c(Cl)c[nH]c12)c1ccc(S(=O)(=O)N2CCNCC2)cc1` [compound 147]: the IC50 is less than 100000 nM.

In the case of `CCCC1CN(S(=O)(=O)c2ccc(S(=O)(=O)Nc3ccc(Cl)c4c(Cl)c[nH]c34)cc2)CCN1` (stereo not drawn) [compound 110], the IC50 was less than 5000 nM.

The target in a further assay is T1, DCAF15-RBM39 ternary complex (Homo sapiens, UniProt Q14498+Q66K64).
T1 construct: (RRM2)
T1 sequence (Q66K64 whole entry): as the sequence (Q66K64 whole entry) above
T1 sequence (Q14498 250-328 limits assumed): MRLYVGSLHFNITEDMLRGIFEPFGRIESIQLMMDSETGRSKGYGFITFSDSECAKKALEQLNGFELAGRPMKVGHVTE
T1 sequence (Q16531 whole entry partner): as the sequence (Q16531 whole entry partner) above
Kind of assay: Compound-induced DCAF15-RBM39 ternary complex formation, AlphaLISA. It counts as biochemical.
Details: not given
The method, then: Compound-induced DCAF15-RBM39 ternary complex formation was monitored using AlphaLISA® assays (Perkin Elmer, Waltham, MA). […] 9.8 ul of this protein mixture was then mixed with the compounds in the assay plate and incubated for one hour at room temperature. Reaction mixtures with no compounds added were included as negative controls, while a His-tagged and biotinylated GST protein was included to track general assay performance. […] The beads were then added to the assay plate sequentially with incubation at room temperature for 1-2 hours after each addition.
On the technique in general: In Alpha technology, singlet oxygen from a donor bead excites a nearby acceptor bead.
As to `N#Cc1ccc(CCCN2CCN(S(=O)(=O)c3ccc(S(=O)(=O)Nc4ccc(Cl)c5c(Cl)c[nH]c45)cc3)CC2)cc1` [Compound 50, 4-((4-(3-(4-cyanophenyl)propyl)piperazin-1-yl)sulfonyl)-N-(3,4-dichloro-1H-indol-7-yl)benzenesulfonamide], the EC50 – broadly, the concentration needed to bring the measured effect to its halfway point – is less than 1000 nM.

Staying with this assay, now noted: AlphaLISA, His-tagged DCAF15 complex and biotin-carrying RBM39; read-out: Ternary-RBM39 (RRM2) EC50.
Turning to `N#Cc1cc(S(=O)(=O)Nc2ccc(Cl)c3c(Cl)c[nH]c23)ccc1S(=O)(=O)N1CCNCC1` [Compound 43, 3-cyano-N-(3,4-dichloro-1H-indol-7-yl)-4-(piperazin-1-ylsulfonyl)benzenesulfonamide], the EC50 is less than 1000 nM.

Consider `O=S(=O)(Nc1ccc(Cl)c2c(Cl)c[nH]c12)c1ccc(S(=O)(=O)N2CCCCC2)cc1` [Compound 37, N-(3,4-dichloro-1H-indol-7-yl)-4-(piperidin-1-ylsulfonyl)benzenesulfonamide], for which the EC50 was less than 1000 nM.

With `O=S(=O)(Nc1ccc(Cl)c2c(Cl)c[nH]c12)c1ccc(S(=O)(=O)NC2CCOCC2)cc1` [Compound 28, N^1-(3,4-dichloro-1H-indol-7-yl)-N^4-(tetrahydro-2H-pyran-4-yl)benzene-1,4-disulfonamide], the EC50 is less than 1000 nM.

Regarding `Cc1ccc(NS(=O)(=O)c2ccc(S(=O)(=O)N(C)C3CNC3)cc2)c2[nH]cc(C#N)c12` [Compound 79, N^1-(azetidin-3-yl)-N^4-(3-cyano-4-methyl-1H-indol-7-yl)-N^1-methylbenzene-1,4-disulfonamide], the EC50 was less than 1000 nM.

Take `COCCc1cn(-c2cccc(S(=O)(=O)Nc3ccc(C)c4c(C#N)c[nH]c34)c2)nn1` [Compound 97, N-(3-cyano-4-methyl-1H-indol-7-yl)-3-(4-(2-methoxyethyl)-1H-1,2,3-triazol-1-yl)benzenesulfonamide]: the EC50 is less than 1000 nM.

As to `O=S(=O)(Nc1cccc2cc[nH]c12)c1ccc(S(=O)(=O)N2CCNCC2)cc1` [compound 145], the EC50 is less than 5000 nM.

Regarding `CN1CCN(S(=O)(=O)c2ccc(S(=O)(=O)Nc3ccc(Cl)c4c(Cl)c[nH]c34)cc2)CC1` [Compound 48, N-(3,4-dichloro-1H-indol-7-yl)-4-((4-methylpiperazin-1-yl)sulfonyl)benzenesulfonamide], the EC50 was less than 1000 nM.

For `CCCN(c1ccc(S(=O)(=O)Nc2ccc(Cl)c3c(Cl)c[nH]c23)cc1)S(=O)(=O)C1CCN(C)CC1` [Compound 62, N-(4-(N-(3,4-dichloro-1H-indol-7-yl)sulfamoyl)phenyl)-1-methyl-N-propylpiperidine-4-sulfonamide], the EC50 is less than 1000 nM.

For `COc1cc(NS(=O)(=O)c2cccc(C#N)c2)c2[nH]cc(Cl)c2c1` [Compound 103, N-(3-chloro-5-methoxy-1H-indol-7-yl)-3-cyanobenzenesulfonamide], the EC50 was less than 1000 nM.

Regarding `COCCN1CCN(S(=O)(=O)c2ccc(S(=O)(=O)Nc3ccc(C)c4c(C#N)c[nH]c34)cc2)CC1` [Compound 85, N-(3-cyano-4-methyl-1H-indol-7-yl)-4-((4-(2-methoxyethyl)piperazin-1-yl)sulfonyl)benzenesulfonamide], the EC50 is less than 1000 nM.

Consider `O=S(=O)(Nc1ccc(Cl)c2c(Cl)c[nH]c12)c1ccc(Br)cc1` [Compound 75, 4-bromo-N-(3,4-dichloro-1H-indol-7-yl)benzenesulfonamide], for which the EC50 was less than 5000 nM.

On to `O=S(=O)(NCCOCC1CC1)c1ccc(S(=O)(=O)Nc2ccc(Cl)c3c(Cl)c[nH]c23)cc1` [Compound 6, N^1-(2-(cyclopropylmethoxy)ethyl)-N^4-(3,4-dichloro-1H-indol-7-yl)benzene-1,4-disulfonamide], for which the EC50 was less than 5000 nM.

Regarding `CCS(=O)(=O)CCNS(=O)(=O)c1ccc(S(=O)(=O)Nc2ccc(Cl)c3c(Cl)c[nH]c23)cc1` [Compound 3, N^1-(3,4-dichloro-1H-indol-7-yl)-N^4-(2-(ethylsulfonyl)ethyl) benzene-1,4-disulfonamide], the EC50 was less than 1000 nM.

For `O=C(NS(=O)(=O)c1ccc(Br)s1)c1ccc(Cl)cc1Cl` [Tasisulam, tasisulam, reference compound], the EC50 is less than 5000 nM.

For the compound `O=S(=O)(NCCc1ccccn1)c1ccc(S(=O)(=O)Nc2ccc(Cl)c3c(Cl)c[nH]c23)cc1` [Compound 26, N^1-(3,4-dichloro-1H-indol-7-yl)-N^4-(2-(pyridin-2-yl)ethyl)benzene-1,4-disulfonamide], the EC50 is less than 5000 nM.

Consider `Cc1ccc(NS(=O)(=O)c2cc(F)cc(C#N)c2)c2[nH]cc(C#N)c12` [Compound 98, 3-cyano-N-(3-cyano-4-methyl-1H-indol-7-yl)-5-fluorobenzenesulfonamide], for which the EC50 is less than 1000 nM.

As to `O=S(=O)(Nc1ccc(Cl)c2c(Cl)c[nH]c12)c1ccc(S(=O)(=O)NC2CCc3ccccc32)cc1` (stereo not drawn) [Compound 34, N^1-(3,4-dichloro-1H-indol-7-yl)-N^4-(2,3-dihydro-1H-inden-1-yl)benzene-1,4-disulfonamide], the EC50 was less than 20000 nM.

For `C#CCOCCOCCOCC(=O)N(CCC)c1ccc(S(=O)(=O)Nc2ccc(Cl)c3c(Cl)c[nH]c23)cc1` [compound 132], the EC50 is less than 5000 nM.

As for `Cc1ccc(NS(=O)(=O)c2ccc(S(=O)(=O)N3CCOCC3)cc2)c2[nH]cc(C#N)c12` [Compound 90, N-(3-cyano-4-methyl-1H-indol-7-yl)-4-(morpholinosulfonyl)benzene sulfonamide], the EC50 was less than 1000 nM.

Take `O=S(=O)(Nc1ccc(Cl)c2c(Cl)c[nH]c12)c1ccc(NS(=O)(=O)C2CCNCC2)cc1` [Compound 65, N-(4-(N-(3,4-dichloro-1H-indol-7-yl)sulfamoyl)phenyl)piperidine-4-sulfonamide]: the EC50 is less than 5000 nM.

As for `Cc1ccc(NS(=O)(=O)c2ccc(S(=O)(=O)N3CCCC(N)C3)cc2)c2[nH]cc(C#N)c12` (stereo not drawn) [Compound 82, 4-((3-aminopiperidin-1-yl)sulfonyl)-N-(3-cyano-4-methyl-1H-indol-7-yl) benzenesulfonamide], the EC50 is less than 1000 nM.

Turning to `O=S1(=O)CCC(OCCNS(=O)(=O)c2ccc(S(=O)(=O)Nc3ccc(Cl)c4c(Cl)c[nH]c34)cc2)CC1` [Compound 4, N^1-(3,4-dichloro-1H-indol-7-yl)-N4_ (2-((1,1-dioxidotetrahydro-2H-thiopyran-4-yl)oxy)ethyl) benzene-1,4-disulfonamide], the EC50 is less than 1000 nM.

`Cc1ccc(NS(=O)(=O)c2ccc(S(=O)(=O)N3CCNC(=O)C3)cc2)c2[nH]cc(C#N)c12` [Compound 89, N-(3-cyano-4-methyl-1H-indol-7-yl)-4-((3-oxopiperazin-1-yl)sulfonyl)benzenesulfonamide]: the EC50 is less than 1000 nM.

With `CCOC(=O)N1CCN(S(=O)(=O)c2ccc(S(=O)(=O)Nc3ccc(Cl)c4c(Cl)c[nH]c34)cc2)CC1` [Compound 49, ethyl 4-((4-(N-(3,4-dichloro-1H-indol-7-yl)sulfamoyl)phenyl)sulfonyl)piperazine-1-carboxylate], the EC50 was less than 5000 nM.

With `CCN(CC)C(=O)c1ccc(CNS(=O)(=O)c2ccc(S(=O)(=O)Nc3ccc(Cl)c4c(Cl)c[nH]c34)cc2)cc1` [Compound 12, 4-(((4-(N-(3,4-dichloro-1H-indol-7-yl)sulfamoyl)phenyl)sulfonamido)methyl)-N,N-diethylbenzamid], the EC50 is less than 20000 nM.

Consider `CCC1CN(S(=O)(=O)c2ccc(S(=O)(=O)Nc3ccc(C)c4c(C#N)c[nH]c34)cc2)CCN1` (stereo not drawn) [Compound 84, N-(3-cyano-4-methyl-1H-indol-7-yl)-4-((3-ethylpiperazin-1-yl)sulfonyl) benzenesulfonamide], for which the EC50 is less than 1000 nM.

Turning to `Cc1ccc(NS(=O)(=O)c2ccc(S(=O)(=O)N3CC4(CNC4)C3)cc2)c2[nH]cc(C#N)c12` [Compound 93, 4-((2,6-diazaspiro[3.3]heptan-2-yl)sulfonyl)-N-(3-cyano-4-methyl-1H-indol-7-yl)benzenesulfonamide], the EC50 was less than 1000 nM.

`Cc1ccc(NS(=O)(=O)c2ccc(S(=O)(=O)N3CCNCC3)cc2)c2[nH]cc(C#N)c12` [Compound 83, N-(3-cyano-4-methyl-1H-indol-7-yl)-4-(piperazin-1-ylsulfonyl)benzene sulfonamide]: the EC50 was less than 1000 nM.

For `CC1CNCCN1S(=O)(=O)c1ccc(S(=O)(=O)Nc2ccc(Cl)c3c(Cl)c[nH]c23)cc1` (stereo not drawn) [Compound 46, N-(3,4-dichloro-1H-indol-7-yl)-4-((2-methylpiperazin-1-yl)sulfonyl)benzene sulfonamide], the EC50 was less than 1000 nM.

For `O=S(=O)(Nc1ccc(Cl)c2c(Cl)c[nH]c12)c1cccc(S(=O)(=O)N2CCNCC2)c1` [Compound 41, N-(3,4-dichloro-1H-indol-7-yl)-3-(piperazin-1-ylsulfonyl)benzenesulfonamide], the EC50 is less than 1000 nM.

In the case of `O=S(=O)(Nc1ccc(Cl)c2c(Cl)c[nH]c12)c1ccc(S(=O)(=O)NC2CCNCC2)cc1` [Compound 29, N^1-(3,4-dichloro-1H-indol-7-yl)-N^4-(piperidin-4-yl)benzene-1,4-disulfonamide], the EC50 was less than 1000 nM.
